Where two headings read alike, the source gives them in different places.
Experiments:
[1] = system: Shionogi mouse mammary carcinoma cells; assay: cells; type: cell-based; conditions: for Ki: read-out: Shionogi cells Antiandrogenic activity Ki; for % of inh of DHT at 10^−7 M (Basal = 100%): 0.0003 µM
Immature Rat CX = conditions: for In Vivo Agonist % Change vs CX (DHT = +100%) SV / In Vivo Agonist % Change vs CX (DHT = +100%) VP: po
Human Androgen Receptor = biological target: T1, Human Androgen Receptor (Homo sapiens, UniProt P10275); type: binding
T1 construct: expressed in transfected cells; host or cells: HEK-293 cells stably transfected with the pCMVneo-hAR plasmid (G-418 selection); cytosol used
T1 sequence (P10275 1-920): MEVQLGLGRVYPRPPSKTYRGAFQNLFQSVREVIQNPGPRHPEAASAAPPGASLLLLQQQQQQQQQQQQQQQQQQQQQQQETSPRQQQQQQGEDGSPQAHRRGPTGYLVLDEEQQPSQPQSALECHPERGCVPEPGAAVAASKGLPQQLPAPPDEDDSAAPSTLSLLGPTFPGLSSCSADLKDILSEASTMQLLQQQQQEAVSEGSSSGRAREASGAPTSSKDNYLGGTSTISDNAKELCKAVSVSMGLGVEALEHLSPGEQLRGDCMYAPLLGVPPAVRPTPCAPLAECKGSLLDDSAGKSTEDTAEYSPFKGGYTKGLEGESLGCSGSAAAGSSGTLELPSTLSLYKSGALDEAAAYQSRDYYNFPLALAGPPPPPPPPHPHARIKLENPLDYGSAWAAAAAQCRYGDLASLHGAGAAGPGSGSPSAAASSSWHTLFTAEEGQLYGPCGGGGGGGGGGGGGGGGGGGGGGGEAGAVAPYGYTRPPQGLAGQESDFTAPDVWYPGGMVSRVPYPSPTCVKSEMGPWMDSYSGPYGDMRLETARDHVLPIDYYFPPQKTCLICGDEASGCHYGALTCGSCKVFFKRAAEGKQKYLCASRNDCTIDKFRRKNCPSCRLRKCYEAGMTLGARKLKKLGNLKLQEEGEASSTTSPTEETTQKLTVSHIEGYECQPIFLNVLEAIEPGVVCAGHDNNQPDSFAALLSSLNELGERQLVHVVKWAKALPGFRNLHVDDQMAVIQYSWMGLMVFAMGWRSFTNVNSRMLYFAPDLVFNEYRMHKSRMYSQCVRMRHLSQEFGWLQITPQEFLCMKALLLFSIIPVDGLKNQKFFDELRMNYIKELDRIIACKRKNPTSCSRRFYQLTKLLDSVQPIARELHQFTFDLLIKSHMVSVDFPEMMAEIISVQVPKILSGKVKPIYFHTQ

Intact Rat = assay: In vivo activity in intact rat (organ and muscle weight); conditions: rat, in vivo
Immature Rat CX + DHT = assay: animal or person; type: in vivo; conditions: po; for change in vivo at 0.1 mg: Rattus norvegicus, 168 h

Question: With Cc1c(C#N)ccc2c1CCC1C2CCC2(C)C1CCCC2(O)Cc1cc[n+]([O-])cc1 (stereo not shown) [EM-9140] as the compound, how does the “Shionogi cells Antiandrogenic activity Ki OH-Flu/Ki compound” value [1] read?
Answer: 11

Question: What about the Ki [1] of the same compound?
Answer: 1.2 nM

Question: What about the “In Vivo Agonist % Change vs CX (DHT = +100%) SV” value (Immature Rat CX) of the same compound?
Answer: 0%

Question: And the “In Vivo Agonist % Change vs CX (DHT = +100%) VP” value (Immature Rat CX)?
Answer: 0%

Question: What about the “Human Androgen Receptor Binding RBA (%) R1881 = 100%” value (Human Androgen Receptor) of the same compound?
Answer: 1.4%

Question: With CCC1CC2(C)C(CCC2(O)Cc2cc[n+]([O-])cc2)C2CCc3c(ccc(C#N)c3F)C12 (stereo not shown) [EM-8987] as the compound, how does the “In Vivo Intact Rat % change vs Intact CONT (Intact CONT = +100%; CX CONT = 0%) Bulbo” value (Intact Rat) read?
Answer: +292 ± 30%

Question: And the “In Vivo Intact Rat % change vs Intact CONT (Intact CONT = +100%; CX CONT = 0%) SZ” value (Intact Rat)?
Answer: +110 ± 13%

Question: And the “In Vivo Intact Rat % change vs Intact CONT (Intact CONT = +100%; CX CONT = 0%) VP” value (Intact Rat)?
Answer: +84 ± 4%

Question: And the “% of stim of basal at 10^−7M (% over basal)” value [1]?
Answer: +73%

Question: And the “% of stim of basal at 10^−7 M (DHT = 100%)” value [1]?
Answer: +74%

Question: And the “% of inh of DHT at 10^−7 M (Basal = 100%)” value [1]?
Answer: +35%

Question: And the “In Vivo Agonist Rat CX % change vs CX (DHT CONT = +100%) Bulbo” value (Immature Rat CX)?
Answer: +118 ± 10%

Question: And the “In Vivo Agonist Rat CX % change vs CX (DHT CONT = +100%) SV” value (Immature Rat CX)?
Answer: +25 ± 5%

Question: And the “In Vivo Agonist Rat CX % change vs CX (DHT CONT = +100%) VP” value (Immature Rat CX)?
Answer: +56 ± 11%

Question: And the “Human Androgen Receptor Binding RBA (%) R1881 = 100%” value (Human Androgen Receptor)?
Answer: 26%

Question: What does the source list for CC1CC2(C)C(CCC2(O)Cc2cc[n+]([O-])cc2F)C2CCc3c(ccc(C#N)c3F)C12 (stereo not shown) [EM-6595]?
Answer: In Vivo Intact Rat % change vs Intact CONT (Intact CONT = +100%; CX CONT = 0%) Bulbo (Intact Rat): +162 ± 9%; In Vivo Intact Rat % change vs Intact CONT (Intact CONT = +100%; CX CONT = 0%) SZ (Intact Rat): +40 ± 3%; In Vivo Intact Rat % change vs Intact CONT (Intact CONT = +100%; CX CONT = 0%) VP (Intact Rat): +67 ± 10%; % of stim of basal at 10^−7M (% over basal) [1]: +117 ± 11%; % of stim of basal at 10^−7 M (DHT = 100%) [1]: +43 ± 13%; % of inh of DHT at 10^−7 M (Basal = 100%) [1]: −58 ± 13%; In Vivo Anti-A Rat CX + DHT % change vs DHT (CX CONT = −100%) SV (Immature Rat CX + DHT; rat, in vivo): [−74 ± 3] %; In Vivo Anti-A Rat CX + DHT % change vs DHT (CX CONT = −100%) VP (Immature Rat CX + DHT; rat, in vivo): [−56 ± 5] %; In Vivo Agonist Rat CX % change vs CX (DHT CONT = +100%) Bulbo (Immature Rat CX): +97 ± 9%; In Vivo Agonist Rat CX % change vs CX (DHT CONT = +100%) SV (Immature Rat CX): +14 ± 1%; In Vivo Agonist Rat CX % change vs CX (DHT CONT = +100%) VP (Immature Rat CX): +28 ± 3%; Human Androgen Receptor Binding RBA (%) R1881 = 100% (Human Androgen Receptor): 13%

Question: With CC[C@H]1C[C@@]2(C)C(CC[C@@]2(O)Cc2ccncc2)C2CCc3c(ccc(C#N)c3F)C21 (stereo partly shown) [EM-8986] as the compound, how does the “In Vivo Intact Rat % change vs Intact CONT (Intact CONT = +100%; CX CONT = 0%) Bulbo” value (Intact Rat) read?
Answer: +241 ± 27%

Question: And the “In Vivo Intact Rat % change vs Intact CONT (Intact CONT = +100%; CX CONT = 0%) SZ” value (Intact Rat)?
Answer: +98 ± 7%

Question: And the “In Vivo Intact Rat % change vs Intact CONT (Intact CONT = +100%; CX CONT = 0%) VP” value (Intact Rat)?
Answer: +76 ± 11%

Question: And the “% of stim of basal at 10^−7M (% over basal)” value [1]?
Answer: +21%

Question: And the “% of stim of basal at 10^−7 M (DHT = 100%)” value [1]?
Answer: +9%

Question: And the “% of inh of DHT at 10^−7 M (Basal = 100%)” value [1]?
Answer: +44%

Question: What about the “In Vivo Anti-A Rat CX + DHT % change vs DHT (CX CONT = −100%) Bulbo” value (Immature Rat CX + DHT; rat, in vivo) of the same compound?
Answer: +74 ± 13%

Question: What about the “In Vivo Anti-A Rat CX + DHT % change vs DHT (CX CONT = −100%) SV” value (Immature Rat CX + DHT; rat, in vivo) of the same compound?
Answer: −25 ± 4%

Question: What about the “In Vivo Anti-A Rat CX + DHT % change vs DHT (CX CONT = −100%) VP” value (Immature Rat CX + DHT; rat, in vivo) of the same compound?
Answer: −24 ± 3%

Question: What about the “In Vivo Agonist Rat CX % change vs CX (DHT CONT = +100%) Bulbo” value (Immature Rat CX) of the same compound?
Answer: +149 ± 13%

Question: And the “In Vivo Agonist Rat CX % change vs CX (DHT CONT = +100%) SV” value (Immature Rat CX)?
Answer: +24 ± 3%

Question: And the “In Vivo Agonist Rat CX % change vs CX (DHT CONT = +100%) VP” value (Immature Rat CX)?
Answer: +35 ± 3%

Question: What about the “Human Androgen Receptor Binding RBA (%) R1881 = 100%” value (Human Androgen Receptor) of the same compound?
Answer: 508%

Question: C[C@]12CCC3c4ccc(C#N)c(F)c4CCC3C1CC[C@@]2(O)Cc1cc[n+]([O-])cc1Cl (stereo partly shown) [EM-8633] was tested. Which Ki [1] did it give?
Answer: 0.8 nM

Question: And the change in vivo at 0.1 mg (Immature Rat CX + DHT; read-out: In Vivo Antagonist % Change vs DHT (CX = −100%) SV)?
Answer: -83%

Question: What about the change in vivo at 0.1 mg (Immature Rat CX + DHT; read-out: In Vivo Antagonist % Change vs DHT (CX = −100%) VP) of the same compound?
Answer: -42 ± 5%

Question: And the “In Vivo Agonist % Change vs CX (DHT = +100%) SV” value (Immature Rat CX)?
Answer: 1%

Question: And the “In Vivo Agonist % Change vs CX (DHT = +100%) VP” value (Immature Rat CX)?
Answer: 0%

Question: What about the “Human Androgen Receptor Binding RBA (%) R1881 = 100%” value (Human Androgen Receptor) of the same compound?
Answer: 2.3%

Question: For C[C@]12CCC3c4ccc(C#N)c(Cl)c4CCC3C1CC[C@@]2(O)Cc1ccncc1F (stereo partly shown) [EM-5988], which “Shionogi cells Antiandrogenic activity Ki (nM)” value [1] is on record?
Answer: mixed

Question: What about the “Shionogi cells Antiandrogenic activity Ki OH-Flu/Ki compound” value [1] of the same compound?
Answer: mixed

Question: What about the “In Vivo Antagonist % Change vs DHT (CX = −100%) SV” value (Immature Rat CX + DHT; rat, in vivo) of the same compound?
Answer: [−83 ± 3] %

Question: What about the “In Vivo Antagonist % Change vs DHT (CX = −100%) VP” value (Immature Rat CX + DHT; rat, in vivo) of the same compound?
Answer: [−71 ± 5] %

Question: And the “In Vivo Agonist % Change vs CX (DHT = +100%) SV” value (Immature Rat CX)?
Answer: +10 ± 0%

Question: What about the “In Vivo Agonist % Change vs CX (DHT = +100%) VP” value (Immature Rat CX) of the same compound?
Answer: +10 ± 0%

Question: And the “Human Androgen Receptor Binding RBA (%) R1881 = 100%” value (Human Androgen Receptor)?
Answer: 97 ± 19%

Question: Which “Shionogi cells Antiandrogenic activity Ki OH-Flu/Ki compound” value [1] does the source give for Cc1c(C#N)ccc2c1CCC1C2CC[C@@]2(C)C1CC[C@@]2(O)Cc1ccncc1 (stereo partly shown) [EM-5984] here?
Answer: 4.0

Question: What about the Ki [1] of the same compound?
Answer: 1.9 nM

Question: And the “In Vivo Agonist % Change vs CX (DHT = +100%) SV” value (Immature Rat CX)?
Answer: 0%

Question: What about the “In Vivo Agonist % Change vs CX (DHT = +100%) VP” value (Immature Rat CX) of the same compound?
Answer: 0%

Question: And the “Human Androgen Receptor Binding RBA (%) R1881 = 100%” value (Human Androgen Receptor)?
Answer: 29%
